Experiment [1] relates to HDF cells. In words: Cell adherence test with HDF cells. Type of experiment: cell-based, human. The note with it: for CELL ADHESION [%]: peptide/BSA conjugates bound to polystyrene, approx. 35 nmol peptide per well, 1 hour at 37° C., fibronectin positive control, BSA negative control; for adherence promoting effect for HDF cells (in words): BSA conjugates. Here is the method: (§1) 50 μl each of the peptide/BSA conjugates or the peptides were placed, in different concentrations, in the wells of a 96-well flat-bottomed microtiter plate (DYNATECH). After drying for 2 hours at 37° C., unbound peptide/BSA conjugate or peptide is removed by washing with phosphate-buffered saline solution (PBS) several times. In order to prevent the non-specific adhesion of the cells to polystyrene, all the wells were subsequently saturated for 30 min. at 37° C. with heat-denatured BSA (2 mg/ml). Following that, it was once again washed with PBS.
As a positive control for the adhesion capacity, bovine fibronectin (Paesel & Lorey, 1 mg/ml) was used, and heat-denatured BSA (2 mg/ml) as a negative control; this is not capable of influencing intercellular adhesion.
(§2) The cell adherence test was performed with AKR-2B mouse fibroblasts (Shipley et al., Cancer Res. 44 (1984) 710-716) and human dermal fibroblasts (HDF, removed from the lower arm, 18th passage). AKR-2B cells were cultivated in McCoy's medium (10% calf serum), and HDF cells in Dulbecco's modified eagle medium (DMEM) in the presence of 10% foetal calf serum (FCS) and 1% streptomycin/penicillin. For the adherence test, the cells were washed twice with protein-free HYBRI-MAX™ (medium for culture of hybridoma cell types containing 1 mM Mn^2+ and 0.02% heat-denatured BSA) medium (SIGMA) and then taken up in Hybri-Max (1 mM Mn^2+, 0.02% heat-denatured BSA). In this way, it was largely ensured that neither protein components from the culture medium, nor serum components, such as fibronectin for example, could influence the adherence test. In each well of the microtiter plate previously filled with test substance (peptide concentration per well: approx. 35 nmol), 200 μl of the cell suspension taken up in HYBRI-MAX™ (medium for culture of hybridoma cell types containing 1 mM Mn^2+ and 0.02% heat-denatured BSA) (1 mM Mn^2+, 0.02% heat-denatured BSA) (1.5×10^5 cells/well) were pipetted and incubated for 1 hour in an incubator at 37° C., 5% CO2 atmosphere. After that, the supernatant was decanted off, and non-adhered cells were removed by washing with PBS. The adhered cells were fixed for 0.5 min with methanol and stained with the MERCK HEMACOLOR™ (colution for fast staining in microscopy) reagent kit in order to quantify the number of cells.

The subject of experiment [2] is HDF cells. In words: Chemotaxis test using HDF cells (modified Boyden chambers). Format: cell-based, human. The note with it: 4 hours at 37° C., medium control deducted, Collagen 0.3 nmol/ml, Fibronectin 0.6 nmol/ml, peptides 1 μmol/ml. Here is the method: In addition to wound contraction, the epithelialisation of the wound as a result of the migration of cells from the edges of wounds plays a significant role in wound repair. Some selected peptides were investigated in chemotaxis tests in order to study their ability to simulate the migration of HDF cells. The test was conducted in accordance with Scharffetter-Kochanek et al. (J. Invest. Dermatol. 98 (1992) 3-11) in modified Boyden chambers. In the lower cavity of the Boyden chamber, 210 μl DMEM (control) or the potential chemoattractant taken up in the same volume of DMEM were placed. […] 2×10^5 cells were pipetted into the upper Boyden chamber (volume 810 μl). The incubation time was 4 hours at 37° C. The results for the peptides investigated are summed up in Tab. 5, with the figures for the medium control already having been deducted from these readings.

The subject of experiment [3] is AKR-2B cells. Put plainly: Cell adherence test, dilution series on AKR-2B cells (EC50). The note with it: for EC50 (semi-maximum cell adherence): peptide/BSA conjugates diluted in PBS, read off from curve. Format: cell-based, mouse. Here is the method: as §1, §2
For some selected conjugates, dilution series were included in order to determine binding constants for AKR-2B cells. For this purpose, the peptide/BSA conjugates were diluted in PBS, and 50 μl each of these dilutions were placed in the wells of a microtiter plate. Incubation and all the other steps were performed according to the method described above. After the readings had been plotted graphically, the difference between the figure for the maximum cell adherence and the zero value could be formed, and the EC50 values shown in Tab. 3 as a measure of the semi-maximum cell adherence could be read off from the line of the curve.
In order to establish binding constants for the peptides of the invention, dose effectiveness curves on AKR-2B cells were recorded for some selected conjugates. The EC50 values shown in Tab. 3 as a measure of semi-maximum cell adherence were read off from the curve concerned (plotted: cell adherence versus peptide concentration). Low EC50 values mean that only small quantities of the substances need to be used in order to achieve a semi-maximum effect, in other words that the substance is very effective.

Experiment [4] deals with AKR-2B cells. In words: Competitive inhibition test (adherence of AKR-2B cells to BSA/AP#2 conjugate). Type of experiment: cell-based, mouse. The note with it: for Inhibition (maximum measured reduction in cell adherence): soluble peptide 1 μmol/well, AKR-2B cells, plates coated with BSA/AP#2 conjugate 10 nmol/well; for inhibitory effect on the attachment of AKR-2B cells (in words): soluble peptides, competition with BSA/AP#2 conjugate. Here is the method: Via the specific saturation of surface receptors (shown schematically in FIG. 3E), it is possible, in the case of soluble peptides, to measure an inhibitory effect on the adhesion of test cells (AKR-2B). In the experiment described here, a selected peptide/BSA conjugate corresponding to a peptide concentration of 10 nmol/well was placed in the microtiter plates and incubated for 2 hours at 37° C. Unsaturated binding sites in the culture vessel were subsequently saturated for 30 minutes with heat-denatured BSA (2 mg/ml). The peptides were dissolved in HYBRI-MAX™ (medium for culture of hybridoma cell types containing 1 mM Mn^2+ and 0.02% heat-denatured BSA) Medium (0.02 % BSA, 1 mM Mn^2+), and the pH was adjusted to a level of 7.2 to 7.4. Following that, the peptide solutions were treated with Reductacryl®. […] From these stock solutions, dilution series were prepared in HYBRI-MAX™ (medium for culture of hybridoma cell types containing 1 mM Mn^2+ and 0.02% heat-denatured BSA) medium (1 mM Mn^2+, 0.02% heat-denatured BSA), and added to the AKR-2B cells taken up in the same medium. After that, the specimens were incubated for 10 minutes at 37° C., while being gently shaken. The cells pre-treated in this way (1.5×10^5 /200 μl) were subsequently transferred to the conjugate-coated microtiter plates. The further treatment of the test plates was performed by analogy with 4.1.
The inhibitory effect of the peptides is shown in Tab. 4 as the difference between the 100% figure (control, with no peptide in the medium), and the maximum measured reduction in cell adherence at a peptide concentration of 1 μmol/well. A figure of 100% would mean complete inhibition, i.e. the maximum effect.
For the peptides of the invention available in soluble form, i.e. in a form not bound to carrier molecules, it is possible to detect adhesion inhibiting properties which come about as a result of the specific blockade of epitopes on surface receptors of the test cells (cf. FIG. 3E).
The AP#2 peptide was selected as an internal standard. Compared to most of the other peptides of the invention (cf. Tab. 2), the adhesion promoting properties of BSA/AP#2 conjugates lie within a region of semi-maximum effectiveness. Experience has shown that, in order to detect inhibitory effects, it is favourable to measure in a range of less than optimum effect, since otherwise weak inhibitory effects might not be detected.

“A-E-L-L-D-G-(C) (AELLDG; C-terminal Cys) [AP#24]”: the “CELL ADHESION [%]” value in experiment [1] was determined as 32.7%.

In the case of “Collagen: collagen I, positive control in chemotaxis test”, in experiment [2], the “Avge. no. of cells per field of vision” value stood at 45.7 and the “Chemotactic migration [%]” value is listed as 100.0%.

E-L-L-D-G-(C) [AP#25]: the “CELL ADHESION [%]” value in experiment [1] is 47.7%. Further, the “EC50 / binding constant on AKR-2B cells (in words)” value in experiment [3] (peptide/BSA conjugates) is “better binding constant was obtained compared to the control”. In experiment [3], the “EC50 (semi-maximum cell adherence)” value is listed as 42.0 pmol/well. In experiment [4], the Inhibition (maximum measured reduction in cell adherence) was found to be 18.1% and the “inhibitory effect on the attachment of AKR-2B cells (in words)” value was “slightly less efficiency”.

In the case of “FN: bovine fibronectin (Paesel & Lorey, 1 mg/ml), positive control for the adhesion capacity”, in experiment [1], the “CELL ADHESION [%]” value is given as 100.0%.

Fibronectin: in experiment [2], the “Avge. no. of cells per field of vision” value is listed as 43.9 and the “Chemotactic migration [%]” value was determined as 96.0%.

For “G-G-G-A-G-G-G-S-S-G-S-G-(C) (GGGAGGGSSGSG; C-terminal Cys) [AP#11]”, in experiment [1], the “adherence promoting effect for HDF cells (in words)” value (shortened to “adherence promoting effect”) is “significant adhesion modifying effect” and the “CELL ADHESION [%]” value worked out at 30.5%.

Take “G-G-G-S-G-G-G-S-S-G-S-G-(C) (GGGSGGGSSGSG; C-terminal Cys) [AP#10]”: in experiment [1], the “adherence promoting effect” value is reported as “significant adhesion modifying effect” and the “CELL ADHESION [%]” value was found to be 27.5%.

With G-I-V-R-T-P-L (GIVRTPL) [AP#9], in experiment [1], the “adherence promoting effect” value was “good effectiveness” and the “CELL ADHESION [%]” value was 93.0%. The “EC50 (semi-maximum cell adherence)” value in experiment [3] is 50.7 pmol/well.

As for G-I-V-R-T-P-L-A-E-L (GIVRTPLAEL) [AP#8], in experiment [1], the “adherence promoting effect” value was “good effectiveness” and the “CELL ADHESION [%]” value was 78.2%. Moreover, in experiment [3], the “EC50 (semi-maximum cell adherence)” value was found to be 41.7 pmol/well.

In the case of “G-R-G-D-S-(C) [IVA1b, reference compound]”, in experiment [1], the “adherence promoting effect” value is listed as “similarly good to those of fibronectin” and the “CELL ADHESION [%]” value worked out at 93.8%.

For the substance “G-T-P-G-P-Q-G-I-A-G-Q-R-G-V-V-(C) (GTPGPQGIAGQRGVV; C-terminal Cys) [P-15, adhesion promoting fragment of the α-1(I) chain of collagen, reference compound]”, in experiment [1], the “adherence promoting effect” value is given as “slightly less effective” and the “CELL ADHESION [%]” value worked out at 62.1%.

Regarding G-V-V-S-T-P-L-V-N-L-I-N-G-(C) [AP#5], the “CELL ADHESION [%]” value in experiment [1] is recorded as 53.2%.

For “I-V-R-T-P--- -A-E-L-L-D-G-(C) (AELLDG; N-terminal IVRTP; C-terminal Cys) [AP#14]”, the “CELL ADHESION [%]” value in experiment [1] turned out to be 27.0%.

As to I-V-R-T-P-L-A-E-L-L-D-G-(C) [AP#13], the “CELL ADHESION [%]” value in experiment [1] is listed as 37.3%.

Regarding “L-A-E-L-L-D-G-(C) (LAELLDG; C-terminal Cys) [AP#21]”, the “CELL ADHESION [%]” value in experiment [1] came out at 43.5%.

Take L-A-E-L-L-D-G-E-(C) [AP#20]: in experiment [1], the “adherence promoting effect” value is listed as “increased adherence promoting effect” and the “CELL ADHESION [%]” value is recorded as 54.1%.

On to L-A-E-L-L-D-G-E-G-(C) [AP#19], for which, in experiment [1], the “adherence promoting effect” value was “increased adherence promoting effect” and the “CELL ADHESION [%]” value was found to be 51.9%.

In the case of L-A-E-L-L-D-G-E-G-Q-(C) [AP#18], in experiment [1], the “adherence promoting effect” value was “only have a basal adhesion promoting effect” and the “CELL ADHESION [%]” value is recorded as 11.9%.

“L-A-E-L-L-E-G-(C) (LAELLEG; C-terminal Cys) [AP#22]”: in experiment [1], the “adherence promoting effect” value was “somewhat reduced adherence efficacy” and the “CELL ADHESION [%]” value was determined as 18.8%.

On to “L-A-E-L-L-L-G-(C) (LAELLLG; C-terminal Cys) [AP#23]”, for which, in experiment [1], the “adherence promoting effect” value is on record as “somewhat reduced adherence efficacy” and the “CELL ADHESION [%]” value worked out at 26.4%.

As to L-D-G-(C) [AP#27], in experiment [1], the “adherence promoting effect” value is recorded as “significant adhesion promoting effect” and the “CELL ADHESION [%]” value is recorded as 23.3%.

Consider L-L-D-G-(C) [AP#26], for which the “CELL ADHESION [%]” value in experiment [1] is 31.3%.

As to “Q-I-D-F-N-R-L-F-T-H-P-V-T-D-L-F-D-P-(C) [AP#1]”, in experiment [1], the “adherence promoting effect” value was “Particularly good effectiveness” and the “CELL ADHESION [%]” value was 72.5%. Besides, the “EC50 (semi-maximum cell adherence)” value in experiment [3] amounted to 32.9 pmol/well.

In the case of R-T-P--- -A-E-L-L-D-G-(C) [AP#16], in experiment [1], the “CELL ADHESION [%]” value worked out at 21.4%.

In the case of R-T-P-L-A-E-L-L-D-G-(C) [AP#15], the “CELL ADHESION [%]” value in experiment [1] came to 28.5%.

“S-V-T-L-G-(C) [SVTLG, reference compound]”: in experiment [1], the “adherence promoting effect” value is “slightly less effective” and the “CELL ADHESION [%]” value was 72.1%. Besides, in experiment [3], the “EC50 (semi-maximum cell adherence)” value is listed as 64.5 pmol/well.

Take T-V-L-R-N-I-Q-E-L-L-D-G-E-(C) [AP#12]: the “CELL ADHESION [%]” value in experiment [1] is reported as 74.2%. For the same substance, the “EC50 (semi-maximum cell adherence)” value in experiment [3] is reported as 29.0 pmol/well.

In the case of “V-T-G-R-G-D-S-P-A-(C) [IVA1, reference compound]”, in experiment [1], the “adherence promoting effect” value is given as “similarly good to those of fibronectin” and the “CELL ADHESION [%]” value was 93.9%. The “EC50 (semi-maximum cell adherence)” value in experiment [3] is 0.73 pmol/well. In experiment [4], the Inhibition (maximum measured reduction in cell adherence) stood at 2.6% and the “inhibitory effect on the attachment of AKR-2B cells (in words)” value is given as “virtually no effect”.
